Measured values as given in patent US20050276812A1, “Antibody-drug conjugates and methods” (Genentech, Inc., priority 2004, published 2005).

What was measured:
[1] = 5-day acute toxicity study in rats; type: in vivo, female Sprague-Dawley rats; settings: free DM1, 160 μg/kg (Group 6)
Procedure: Antibody-drug conjugates and an ADC-minus control, “Vehicle”, were evaluated in an acute toxicity rat model. Toxicity of ADC was investigated by treatment of female Sprague-Dawley rats with the ADC and subsequent inspection and analysis of the effects on various organs. Based on gross observations (body weights), clinical pathology parameters (serum chemistry and hematology) and histopathology, the toxicity of ADC may be observed, characterized, and measured.
Body weight was measured daily. Clinical chemistry, serum enzymes and hematology analysis was conducted on days 3 and 5; concluding with complete necropsy with histopathological assessment.
Animals were injected on day 1, complete chemistry and hematology profiles were obtained at baseline, day 3 and day 5 and a complete necropsy was performed on day 5. Routine histology was performed on three random animals for each group for the following tissues: sternum, liver, kidney, thymus, spleen, large and small intestine.

[2] = system: SK-BR-3 and BT-474 breast cancer cells; test: in vitro cellular proliferation assay of free drug and drug-linker; type: cell-based
Excerpt: Pharmaceutical formulations of a therapeutic antibody-drug conjugate (ADC) may contain certain amounts of unreacted drug moiety (D), antibody-linker intermediate (Ab-L), and/or drug-linker intermediate (D-L), as a consequence of incomplete purification and separation of excess reagents, impurities, and by-products, in the process of making the ADC; or time/temperature hydrolysis or degradation upon storage of the bulk ADC or formulated ADC composition. […] Alternatively, or in addition to, it may contain a detectable amount of drug-linker intermediate DM1-SMCC. Alternatively, or in addition to, it may contain a detectable amount of the antibody, trastuzumab.
Efficacy of ADC were measured by a cell proliferation assay employing the following protocol (Promega Corp. Technical Bulletin TB288; Mendoza et al (2002) Cancer Res. 62:5485-5488): • 1. An aliquot of 100 μl of cell culture containing about 10^4 cells (SKBR-3, BT474, MCF7 or MDA-MB-468) in medium was deposited in each well of a 96-well, opaque-walled plate. • 2. Control wells were prepared containing medium and without cells. • 3. ADC was added to the experimental wells and incubated for 3-5 days. • 4. The plates were equilibrated to room temperature for approximately 30 minutes. • 5. A volume of CellTiter-Glo Reagent equal to the volume of cell culture medium present in each well was added. • 6. The contents were mixed for 2 minutes on an orbital shaker to induce cell lysis. • 7. The plate was incubated at room temperature for 10 minutes to stabilize the luminescence signal. • 8. Luminescence was recorded and reported in graphs as RLU=relative luminescence units.

**Q.** Which results are given for COc1cc2cc(c1Cl)N(C)C(=O)C[C@H](OC(=O)[C@H](C)N(C)C(=O)CCS)[C@]1(C)O[C@H]1[C@H](C)[C@@H]1C[C@@](O)(NC(=O)O1)[C@H](OC)/C=C/C=C(\C)C2 [DM1, N^2′-deacetyl-N^2′-(3-mercapto-1-oxopropyl)-maytansine]?
**A.** severity of toxicity [1]: less than that seen in animals of Group 2; IC50 [2]: 0.0045 µM

**Q.** For COc1cc2cc(c1Cl)N(C)C(=O)C[C@H](OC(=O)[C@H](C)N(C)C(=O)CCSC1CC(=O)N(CC3CCC(C(=O)ON4C(=O)CCC4=O)CC3)C1=O)[C@]1(C)O[C@H]1[C@H](C)[C@@H]1C[C@@](O)(NC(=O)O1)[C@H](OC)/C=C/C=C(\C)C2 (stereo partly shown) [DM1-SMCC], which IC50 [2] is on record?
**A.** 0.05 µM

**Q.** And the “times less potent in cell killing than free drug DM1” value [2]?
**A.** about 20 times
